The values below come from ChEMBL document CHEMBL3745649, “Structure-activity relationship study of anticancer thymidine-quinoxaline conjugates under the low radiance of long wavelength ultraviolet light for photodynamic therapy” (Eur J Med Chem, 2016).

SMILES strings stand for the structures. Calls of active or inactive are those of the source. No cut-off for these calls is given here.

Data set [1] in a line: Dark toxicity against human PANC1 cells assessed as cell viability after 53 hrs by CCK8 assay in absence of UVA-1 irradiation. It counts as cell-based, PANC-1.
A short description of data set [2]: Dark toxicity against human Bel7402 cells assessed as cell viability after 53 hrs by CCK8 assay in absence of UVA-1 irradiation. It counts as cell-based, Bel-7402. (In general: Formazan colour is commonly taken as a measure of viable cells.)
A short description of data set [3]: Photocytotoxicity against human Bel7402 cells assessed as cell viability preincubated for 5 hrs followed by UVA-1 irradiation at 0.85 mW/cm'2 for 20 mins measured after 48 hrs by CCK8 assay. It counts as functional, cell-based. The conditions noted are these: Bel-7402, light or radiation study.
Data set [4] in a line: Photocytotoxicity against human PANC1 cells assessed as cell viability preincubated for 5 hrs followed by UVA-1 irradiation at 0.85 mW/cm'2 for 20 mins measured after 48 hrs by CCK8 assay. As to conditions: PANC-1, light or radiation study. It counts as functional, cell-based.
Data set [5] in a line: Cytotoxicity against human PANC1 cells assessed as viable cells at 50 uM. It counts as functional. As to conditions: PANC-1, read-out: Activity.
A short description of data set [6]: Cytotoxicity against human Bel7402 cells assessed as viable cells at 50 uM. It counts as functional. The conditions noted are these: Bel-7402, read-out: Activity.
For data set [7], the system named is PANC-1. Nature of the data set: Photocytotoxicity against human PANC1 cells assessed as production of reactive oxygen stress at 5 uM preincubated for 5 hrs followed by UVA-1 irradiation at 0.85 mW/cm'2 for 20 mins measured for 10 mins by DCFH-DA based fluorescence microscopic analysis. It counts as functional, cell-based.
The test system of data set [8] is Bel-7402. Nature of the data set: Photocytotoxicity against human Bel7402 cells assessed as production of reactive oxygen stress at 5 uM preincubated for 5 hrs followed by UVA-1 irradiation at 0.85 mW/cm'2 for 20 mins measured for 10 mins by DCFH-DA based fluorescence microscopic analysis. The format is functional, cell-based.
In data set [9] the test system is PANC-1. Nature of the data set: Antioxidant activity in human PANC1 cells assessed as reduction of H2O2-induced reactive oxygen stress level at 5 uM after 15 mins by DCFH-DA based fluorescence assay. The format is functional, cell-based.
The test system of data set [10] is PANC-1. Put plainly: Antioxidant activity in human PANC1 cells assessed as reduction of reactive oxygen stress level at 5 uM after 15 mins by DCFH-DA based fluorescence assay in absence of H2O2. It counts as functional, cell-based.
Data set [11] is described as follows: Cytotoxicity against human Hep3B cells assessed as cell viability after 72 hrs by MTT assay. It counts as functional, cell-based, Hep 3B2.
Data set [12] has as its system HepG2. Nature of the data set: Cytotoxicity against human HepG2 cells assessed as cell viability after 72 hrs by MTT assay. As to conditions: HepG2, 72 h. It counts as functional, cell-based.
For data set [13], the system named is H22. Nature of the data set: Cytotoxicity against […] cells assessed as cell viability after 72 hrs by MTT assay. The format is functional, cell-based. As to conditions: Mus musculus, H22, 72 h.
For data set [14], the system named is C6. Put plainly: Cytotoxicity against rat C6 cells assessed as cell viability after 72 hrs by MTT assay. The format is functional, cell-based. The conditions noted are these: C6, 72 h.
Data set [15] has as its system MCF7. Put plainly: Cytotoxicity against human MCF7 cells assessed as cell viability after 72 hrs by MTT assay. The conditions noted are these: MCF7, 72 h. The format is functional, cell-based.
Data set [16] can be described thus: Photocytotoxicity against human PANC1 cells assessed as cell viability preincubated for 5 hrs with cells followed by UVA-1 irradiation at 3.0 mW/cm'2 for 20 mins measured after 48 hrs by CCK8 assay. The conditions noted are these: PANC-1, light or radiation study. The format is functional, cell-based.
Data set [17] in a line: Photocytotoxicity against human Bel7402 cells assessed as cell viability preincubated for 5 hrs with cells followed by UVA-1 irradiation at 3.0 mW/cm'2 for 20 mins measured after 48 hrs by CCK8 assay. As to conditions: Bel-7402, light or radiation study. It counts as functional, cell-based.

By EC50 is commonly meant the concentration at which the effect is half-maximal. Consider `Cc1cn([C@H]2C[C@H](n3cc(CNC(=O)CCCCCOc4ccc5c(c4)-c4nc6cc(F)ccc6nc4[C@@H]4C(C)(C)CCC[C@]54C)nn3)[C@@H](CO)O2)c(=O)[nH]c1=O`, for which the EC50 at 53 h in data set [1] worked out at 20 µM; in [2], 10 µM. For the same molecule, the half-maximal effective concentration (EC50) in data set [3] was 4 µM; in [4], 7 µM.
The like results for `Cc1cn([C@H]2C[C@H](n3cc(CNC(=O)CCCCCOc4ccc5c(c4)C(=O)C(=O)[C@@H]4C(C)(C)CCC[C@]54C)nn3)[C@@H](CO)O2)c(=O)[nH]c1=O` were, in that order, greater than 50 µM, greater than 50 µM, greater than 20 µM and greater than 20 µM.
The like results for `Cc1cn([C@H]2C[C@H](n3cc(CNC(=O)CCCCCOc4ccc5c(c4)-c4nc6ccc(F)cc6nc4[C@@H]4C(C)(C)CCC[C@]54C)nn3)[C@@H](CO)O2)c(=O)[nH]c1=O` were, in that order, no less than 50 µM, 10 µM, 7.4 µM and 13.5 µM.
Take `Cc1cn([C@H]2C[C@H](n3cc(CNC(=O)COc4ccc5c(c4)-c4nc6ccccc6nc4[C@@H]4C(C)(C)CCC[C@]54C)nn3)[C@@H](CO)O2)c(=O)[nH]c1=O`: the EC50 at 53 h in data set [1] was 20 µM; in [2], greater than 20 µM. Further, the values for the EC50 in data set [3] and in [4] were 12.5 µM and greater than 20 µM, respectively.
In the case of `Nc1ccn([C@@H]2O[C@H](CO)[C@@H](O)C2(F)F)c(=O)n1` [GEMCITABINE], the viability at 50 µM in data set [5] and in data set [6] was less than 20% each time.
For `CC1(C)CCC[C@]2(C)c3ccc(OCCCCCC(=O)NCc4cn([C@@H]5O[C@H](CO)[C@H](O)[C@H](O)[C@H]5O)nn4)cc3-c3nc4ccccc4nc3[C@H]12`, the result in data set [7] and in data set [8] was inactive. The EC50 at 53 h in data set [1] and in data set [2] was greater than 50 µM throughout. In addition, the outcome in [9] and in [10] was Active. In addition, the EC50 in [3] and in data set [4] was greater than 20 µM each time.
With `Cc1cn([C@H]2C[C@H](n3cc(CNC(=O)CCCCCOc4ccc5c(c4)-c4nc6ccccc6nc4[C@@H]4C(C)(C)CCC[C@]54C)nn3)[C@@H](CO)O2)c(=O)[nH]c1=O`, the EC50 in data set [11] amounted to 6 µM; in [12], 6 µM; in data set [13], 6 µM; in data set [3] it was 4.2 µM; in [14], 6 µM; in [4] it was 9.8 µM. Also, the EC50 in data set [15] stood at 6 µM. The result in [7], in data set [8] and in data set [9] was Active. For the same molecule, the concentration giving a half-maximal response (EC50) at 53 h in data set [1] was no less than 50 µM; in data set [2], 10 µM.
`Cc1cn([C@H]2C[C@H](n3cc(CNC(=O)CCCCCCCOc4ccc5c(c4)-c4nc6ccccc6nc4[C@@H]4C(C)(C)CCC[C@]54C)nn3)[C@@H](CO)O2)c(=O)[nH]c1=O`: the results for the EC50 at 53 h in data set [1] and in [2] were no less than 50 µM and 10 µM, respectively. Also, the EC50 stood at 4 µM in [3] and 5.7 µM in [4].
With `[N-]=[N+]=N[C@@H]1O[C@H](CO)[C@H](O)[C@H](O)[C@H]1O`, the result in data set [9] was Active.
For `CCN(CC)CCNC(=O)c1c(C)[nH]c(/C=C2\C(=O)Nc3ccc(F)cc32)c1C` [SUNITINIB], the EC50 in [16] is 13 µM; in data set [17], 11 µM.
For `Cc1cn([C@H]2C[C@H](n3cc(CNC(=O)CCCCCOc4ccc5c(c4)-c4nc6cc(Br)c(Br)cc6nc4[C@@H]4C(C)(C)CCC[C@]54C)nn3)[C@@H](CO)O2)c(=O)[nH]c1=O`, the EC50 at 53 h was no less than 50 µM in [1] and greater than 20 µM in data set [2]. In addition, the values for the EC50 in data set [3] and in [4] were 2.1 µM and 5.8 µM, respectively.
Take `Cc1cn([C@H]2C[C@H](n3cc(CNC(=O)CCCCCCCOc4ccc5c(c4)-c4nc6ccccc6nc4[C@H]4C(C)(C)CCC[C@]54C)nn3)[C@@H](CO)O2)c(=O)[nH]c1=O`: the EC50 at 53 h in data set [1] was greater than 50 µM; in [2] it was 10 µM. Also, the EC50 in data set [3] was found to be 5.6 µM; in [4] it was 8.1 µM.
On the same counts, the results for `Cc1cn([C@H]2C[C@H](n3cc(CNC(=O)CCCCCOc4ccc5c(c4)-c4nc6ccccc6nc4[C@H]4C(C)(C)CCC[C@]54C)nn3)[C@@H](CO)O2)c(=O)[nH]c1=O` are greater than 50 µM, greater than 20 µM, 5.1 µM and 11.3 µM.
As to `Cc1cn([C@H]2C[C@H](n3cc(CCCC(=O)Nc4cc5ccc6cccc7ccc(c4)c5c67)nn3)[C@@H](CO)O2)c(=O)[nH]c1=O`, the EC50 at 53 h in [1] and in [2] was greater than 50 µM throughout. The EC50 in data set [3] and in [4] was greater than 20 µM each time.
Take `Cc1cn([C@H]2C[C@H](n3cc(CNC(=O)CCCOc4ccc5c(c4)-c4nc6ccccc6nc4[C@@H]4C(C)(C)CCC[C@]54C)nn3)[C@@H](CO)O2)c(=O)[nH]c1=O`: the EC50 at 53 h was 20 µM in data set [1] and greater than 20 µM in [2]. The half-maximal effective concentration (EC50) is 10.9 µM in data set [3] and greater than 10 µM in [4].
